Test results reported in patent publication US20260007758A1, “SO[…]-2 RECEPTOR (SST2R) NON-PEPTIDE DRUG CONJUGATES AND USES THEREOF” (Crinetics Pharmaceuticals, Inc., priority 2024, published 2026).

Key:
Assay type in all cases: cell-based
[1] = tested on: NCI-H524 human small cell lung cancer cells; experiment: H524 assay: inhibition of cell proliferation (CellTiter Glo); settings: 2 h treatment, washout, additional 70 h incubation
Procedure, shortened: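 Proliferation was measured by CellTiter Glo 70 h after a washout that followed a 2 h pulse of NDC. Doses were an 11-point, two-fold dilution series from 1 uM. IC50 was fitted with a four-parameter model to luminescence-based % inhibition relative to control cells.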

SST2 = target: T1, SST2 (Homo sapiens, UniProt P30874); experiment: PathHunter CHO-K1 SST2 Internalization Assay; settings: PathHunter CHO-K1 SST2 cells; 90 min at 37 C; luminescence; read-out: Internalization EC50
T1 construct: host or cells: PathHunter CHO-K1 SST2 cells
Procedure, shortened: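 Four-parameter nonlinear fits of background-corrected luminescence (duplicate means) gave IC50s. NDCs were serially diluted 1:3 over 11 points from a 10 uM final top concentration and incubated 90 min at 37 C with human SST2 CHO-K1 cells plated 48 h earlier at 2500/well. Beta-Glo read-out developed 60 min at RT.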

[2] = target: T2, human somatostatin receptor subtype 2 (Homo sapiens, UniProt P30874); experiment: Functional assay for SSTR2 agonists (HTRF cAMP); settings: CHO-K1 cells stably expressing human SST2; NKH477-stimulated cAMP; 20 min at 37 C; read-out: hSST2 cAMP Avg EC50
T2 construct: expressed in transfected cells
Procedure, shortened: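 Agonist activity read as fall in intracellular cAMP: HTRF 665/620 nm ratio regressed to a cAMP standard curve, EC50 fitted. Stable human SSTR2 CHO-K1 cells exposed 20 min at 37 °C to compound, final concentrations typically 0-10,000 nM.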

T2 sequence (P30874 whole entry): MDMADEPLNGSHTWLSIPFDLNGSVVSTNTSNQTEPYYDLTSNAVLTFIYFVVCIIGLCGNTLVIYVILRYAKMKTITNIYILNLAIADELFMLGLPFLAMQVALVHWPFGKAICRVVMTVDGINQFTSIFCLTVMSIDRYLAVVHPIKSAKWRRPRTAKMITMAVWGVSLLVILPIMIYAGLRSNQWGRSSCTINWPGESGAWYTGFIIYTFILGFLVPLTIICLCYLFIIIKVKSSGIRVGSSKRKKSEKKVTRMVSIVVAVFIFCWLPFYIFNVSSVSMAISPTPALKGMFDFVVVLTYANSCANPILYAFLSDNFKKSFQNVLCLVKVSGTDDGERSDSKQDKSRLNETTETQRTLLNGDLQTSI
T1 sequence (P30874 whole entry): as above

## CC[C@H](C)[C@@H]([C@@H](CC(=O)N1CCC[C@H]1[C@H](OC)[C@@H](C)C(=O)N[C@H](C)[C@@H](O)c1ccccc1)OC)N(C)C(=O)[C@@H](NC(=O)[C@H](C(C)C)N(C)C(=O)OCc1ccc(NC(=O)[C@H](C)NC(=O)[C@@H](NC(=O)CCOCCC(=O)NCCNc2ncc(-c3cc(C)cc(F)c3)c(N3CC[C@H]4NCCO[C@@H]4C3)c2-c2nc3ccc(Cl)cc3[nH]2)C(C)C)c(O[C@@H]2O[C@H](C(=O)O)[C@@H](O)[C@H](O)[C@H]2O)c1)C(C)C [Compound 113]
[1]
  EC50: 2000 nM
SST2
  EC50: 1300 nM
[2]
  EC50: 110 nM

## CC[C@H](C)[C@@H]([C@@H](CC(=O)N1CCC[C@H]1[C@H](OC)[C@@H](C)C(=O)N[C@H](C)[C@@H](O)c1ccccc1)OC)N(C)C(=O)[C@@H](NC(=O)[C@H](C(C)C)N(C)C(=O)OCc1ccc(NC(=O)[C@H](CCCNC(N)=O)NC(=O)[C@@H](NC(=O)[C@@H](CS(=O)(=O)O)NC(=O)CCOCCC(=O)NCCNc2ncc(-c3cc(C)cc(F)c3)c(N3CCC(N)CC3)c2-c2nc3ccc(Cl)cc3[nH]2)C(C)C)cc1C(=O)NCCN)C(C)C [Compound 28]
[1]
  EC50: 120 nM
SST2
  EC50: 11 nM
[2]
  EC50: 0.074 nM

## CC[C@H](C)[C@@H]([C@@H](CC(=O)N1CCC[C@H]1[C@H](OC)[C@@H](C)C(=O)N[C@H](C)[C@@H](O)c1ccccc1)OC)N(C)C(=O)[C@@H](NC(=O)[C@H](C(C)C)N(C)C(=O)OCc1ccc(NC(=O)[C@H](CCCNC(N)=O)NC(=O)[C@@H](NC(=O)C[C@@H](N)C(=O)NCCOCCOCCC(=O)NCCNc2ncc(-c3cc(C)cc(F)c3)c(N3CCC(N)CC3)c2-c2nc3ccc(Cl)cc3[nH]2)C(C)C)c(O[C@@H]2O[C@H](C(=O)O)[C@@H](O)[C@H](O)[C@H]2O)c1)C(C)C [Compound 137]
[1]
  EC50: 850 nM
SST2
  EC50: 2.8 nM
[2]
  EC50: 0.27 nM

## CC[C@H](C)[C@@H]([C@@H](CC(=O)N1CCC[C@H]1[C@H](OC)[C@@H](C)C(=O)N[C@H](C)[C@@H](O)c1ccccc1)OC)N(C)C(=O)[C@@H](NC(=O)[C@H](C(C)C)N(C)C(=O)OCc1ccc(NC(=O)[C@H](CCCNC(N)=O)NC(=O)[C@@H](NC(=O)[C@H](CCC(=O)O)NC(=O)CCOCCC(=O)NCCNc2ncc(-c3cc(C)cc(F)c3)c(N3CCC(N)CC3)c2-c2nc3ccc(Cl)cc3[nH]2)C(C)C)cc1C(=O)NCCN(C)C)C(C)C [Compound 64]
[1]
  EC50: 11 nM
SST2
  EC50: 2.9 nM
[2]
  EC50: 0.12 nM

## CC[C@H](C)[C@@H]([C@@H](CC(=O)N1CCC[C@H]1[C@H](OC)[C@@H](C)C(=O)N[C@H](C)[C@@H](O)c1ccccc1)OC)N(C)C(=O)[C@@H](NC(=O)[C@H](C(C)C)N(C)C(=O)OCc1ccc(NC(=O)[C@H](CCCNC(N)=O)NC(=O)[C@@H](NC(=O)[C@H](CCC(=O)O)NC(=O)CCOCCC(=O)NCCNc2ncc(-c3cc(C)cc(F)c3)c(N3CCC(N)CC3)c2-c2nc3ccc(Cl)cc3[nH]2)C(C)C)c(C)c1)C(C)C [Compound 15]
[1]
  EC50: 91 nM
SST2
  EC50: 17 nM
[2]
  EC50: 0.27 nM

## CC[C@H](C)[C@@H]([C@@H](CC(=O)N1CCC[C@H]1[C@H](OC)[C@@H](C)C(=O)N[C@H](C)[C@@H](O)c1ccccc1)OC)N(C)C(=O)[C@@H](NC(=O)[C@H](C(C)C)N(C)C(=O)OCc1ccc(NC(=O)[C@H](CCCNC(N)=O)NC(=O)[C@@H](NC(=O)C2(NC(=O)CCCC(=O)N(C)CC(=O)NCCNc3ncc(-c4cc(C)cc(F)c4)c(N4CCC(N)CC4)c3-c3nc4ccc(Cl)cc4[nH]3)CCN(CC(=O)O)CC2)C(C)C)cc1)C(C)C [Compound 173]
[1]
  EC50: 52 nM
SST2
  EC50: 19 nM
[2]
  EC50: 0.24 nM

## CC[C@H](C)[C@@H]([C@@H](CC(=O)N1CCC[C@H]1[C@H](OC)[C@@H](C)C(=O)N[C@H](C)[C@@H](O)c1ccccc1)OC)N(C)C(=O)[C@@H](NC(=O)C(C(C)C)N(C)C(=O)OCc1ccc(NC(=O)[C@H](CCCNC(N)=O)NC(=O)[C@@H](NC(=O)CCOCCC(=O)NCCNc2ncc(-c3cc(C)cc(F)c3)c(N3CCC(N)CC3)c2-c2nc3ccc(Cl)cc3[nH]2)C(C)C)c(O[C@@H]2O[C@H](C(=O)N3CC(N)C3)[C@@H](O)[C@H](O)[C@H]2O)c1)C(C)C (stereo partly drawn) [Compound 232]
[1]
  EC50: 5 nM
SST2
  EC50: 5.2 nM
[2]
  EC50: 0.15 nM

## CC[C@H](C)[C@@H]([C@@H](CC(=O)N1CCC[C@H]1[C@H](OC)[C@@H](C)C(=O)N[C@H](C)[C@@H](O)c1ccccc1)OC)N(C)C(=O)[C@@H](NC(=O)[C@H](C(C)C)N(C)C(=O)OCc1ccc(NC(=O)[C@H](CCCNC(N)=O)NC(=O)[C@@H](NC(=O)CCOCCOCCOCCOCCC(=O)NCCNc2ncc(-c3cc(C)cc(F)c3)c(N3CCC(N)CC3)c2-c2nc3ccc(Cl)cc3[nH]2)C(C)C)c(OCC(=O)O)c1)C(C)C [Compound 19]
[1]
  EC50: 28 nM
SST2
  EC50: 8.1 nM
[2]
  EC50: 0.07 nM

## CC[C@H](C)[C@@H]([C@@H](CC(=O)N1CCC[C@H]1[C@H](OC)[C@@H](C)C(=O)N[C@H](C)[C@@H](O)c1ccccc1)OC)N(C)C(=O)[C@@H](NC(=O)[C@H](C(C)C)N(C)C(=O)OCc1ccc(NC(=O)[C@H](CCCNC(N)=O)NC(=O)[C@@H](NC(=O)CCOCCC(=O)NCCNc2ncc(-c3cc(C)cc(F)c3)c(N3CCC(N)CC3)c2-c2nc3ccc(Cl)cc3[nH]2)C(C)C)c(O[C@@H]2O[C@H](C(=O)NCCC(=O)N[C@@H](CCCCNC(=O)CCCCc3ccc(I)cc3)C(=O)O)[C@@H](O)[C@H](O)[C@H]2O)c1)C(C)C [Compound 55]
[1]
  EC50: 11 nM
SST2
  EC50: 2 nM
[2]
  EC50: 0.25 nM

## CC[C@H](C)[C@@H]([C@@H](CC(=O)N1CCC[C@H]1[C@H](OC)[C@@H](C)C(=O)N[C@H](C)[C@@H](O)c1ccccc1)OC)N(C)C(=O)[C@@H](NC(=O)[C@H](C(C)C)N(C)C(=O)OCc1ccc(NC(=O)[C@H](CCCNC(N)=O)NC(=O)[C@@H](NC(=O)CN(C)C(=O)CCOCCC(=O)NCCNc2ncc(-c3cc(C)cc(F)c3)c(N3CCC(N)CC3)c2-c2nc3ccc(Cl)cc3[nH]2)C(C)C)cc1C(=O)NCC(=O)O)C(C)C [Compound 71]
[1]
  EC50: 100 nM
SST2
  EC50: 7.5 nM
[2]
  EC50: 0.14 nM

## CC[C@H](C)[C@@H]([C@@H](CC(=O)N1CCC[C@H]1[C@H](OC)[C@@H](C)C(=O)N[C@H](C)[C@@H](O)c1ccccc1)OC)N(C)C(=O)[C@@H](NC(=O)[C@H](C(C)C)N(C)C(=O)OCc1ccc(NC(=O)[C@H](CCCNC(N)=O)NC(=O)[C@@H](NC(=O)C[C@@H](N)C(=O)NCCOCCC(=O)NCCNc2ncc(-c3cc(C)cc(F)c3)c(N3CCC(NC)CC3)c2-c2nc3ccc(Cl)cc3[nH]2)C(C)C)c(O[C@@H]2O[C@H](C(=O)O)[C@@H](O)[C@H](O)[C@H]2O)c1)C(C)C [Compound 121]
[1]
  EC50: 19 nM
SST2
  EC50: 5.3 nM
[2]
  EC50: 0.14 nM

## CC[C@H](C)[C@@H]([C@@H](CC(=O)N1CCC[C@H]1[C@H](OC)[C@@H](C)C(=O)N[C@H](C)[C@@H](O)c1ccccc1)OC)N(C)C(=O)[C@@H](NC(=O)[C@H](C(C)C)N(C)C(=O)OCc1ccc(NC(=O)[C@H](CCCNC(N)=O)NC(=O)[C@@H](NC(=O)CCOCCOCCOCCOCCC(=O)NCCNc2ncc(-c3cc(C)cc(F)c3)c(N3CCC(N)CC3)c2-c2nc3ccc(Cl)cc3[nH]2)C(C)C)cc1C(=O)N1CC(N)C1)C(C)C [Compound 59]
[1]
  EC50: 260 nM
SST2
  EC50: 2 nM
[2]
  EC50: 0.25 nM
